Laboratory results taken from paper PMC6136348, “In the quest for new targets for pathogen eradication: the adenylosuccinate synthetase from the bacterium Helicobacter pylori” (Journal of Enzyme Inhibition and Medicinal Chemistry, 2018).

What was measured:
[1] = biological target: T1, adenylosuccinate synthetase (AdSS) (Helicobacter pylori, UniProt P56137); experiment: spectrophotometric enzyme assay at […] nm, competitive inhibition fit and Dixon plot (reaction product tested as inhibitor); assay type: biochemical
T1 construct: gene purA; recombinant protein expressed from pET21b-HPpurA
T1 sequence (P56137 1-411): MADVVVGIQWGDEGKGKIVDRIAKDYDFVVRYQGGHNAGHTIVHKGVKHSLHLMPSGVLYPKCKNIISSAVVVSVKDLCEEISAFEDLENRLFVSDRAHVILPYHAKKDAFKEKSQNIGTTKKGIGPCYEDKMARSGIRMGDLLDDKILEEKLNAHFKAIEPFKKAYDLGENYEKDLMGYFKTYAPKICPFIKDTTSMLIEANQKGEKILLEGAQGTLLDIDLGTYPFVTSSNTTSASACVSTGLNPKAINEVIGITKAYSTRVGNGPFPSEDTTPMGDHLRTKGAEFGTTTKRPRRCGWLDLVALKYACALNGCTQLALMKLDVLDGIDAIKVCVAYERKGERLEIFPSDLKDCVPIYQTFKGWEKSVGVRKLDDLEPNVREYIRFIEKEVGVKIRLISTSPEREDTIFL

[2] = biological target: T1, adenylosuccinate synthetase (AdSS); experiment: spectrophotometric enzyme assay at […] nm, competitive inhibition fit and Dixon plot; assay type: biochemical

SMILES	Ki [1]	Ki [2]
O=C(O)C[C@H](Nc1ncnc2c1ncn2[C@@H]1O[C@H](COP(=O)(O)O)[C@@H](O)[C@H]1O)C(=O)O [adenylosuccinate]	3500 ± 300 nM	
O=CN(O)CC(=O)O [hadacidin]		190 ± 20 nM
